These are literature values, as cited in paper PMC12371494, “Discovery of YTHDF2 Ligands by Fragment-Based Design” (ACS Bio & Med Chem Au, 2025).

For this data set, the target named is T1, GST-YTHDF2 (Homo sapiens, UniProt Q9Y5A9).
T1 construct: made in house
T1 sequence (Q9Y5A9 1-579): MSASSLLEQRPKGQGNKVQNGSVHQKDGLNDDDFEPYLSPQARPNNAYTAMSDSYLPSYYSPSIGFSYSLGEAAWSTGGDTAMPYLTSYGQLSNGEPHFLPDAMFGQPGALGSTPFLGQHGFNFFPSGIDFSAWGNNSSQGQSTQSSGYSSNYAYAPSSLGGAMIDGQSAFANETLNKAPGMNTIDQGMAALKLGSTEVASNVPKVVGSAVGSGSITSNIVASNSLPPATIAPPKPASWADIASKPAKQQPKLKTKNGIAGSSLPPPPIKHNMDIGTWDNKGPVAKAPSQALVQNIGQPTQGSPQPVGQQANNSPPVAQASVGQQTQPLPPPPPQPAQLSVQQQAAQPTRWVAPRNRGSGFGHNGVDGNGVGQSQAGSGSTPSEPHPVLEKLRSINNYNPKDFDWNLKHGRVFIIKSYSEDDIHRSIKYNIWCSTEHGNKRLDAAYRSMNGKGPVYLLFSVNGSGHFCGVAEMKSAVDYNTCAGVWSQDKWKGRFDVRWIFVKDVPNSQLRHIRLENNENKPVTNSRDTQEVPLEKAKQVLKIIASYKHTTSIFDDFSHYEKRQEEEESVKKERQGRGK
The conditions noted are these: HTRF, 1 mM compound; cited from earlier work. On the technique in general: TR-FRET usually uses a lanthanide donor and a delayed reading to cut background.

In the case of `CNc1ncnc2[nH]cnc12` [m^6-Adenine], the “Residual signal at 1 mM concentration” value is reported as 75 (Ref. ^13) %.
